Experimental data as given in US9233964B2, “Sulfamide piperazine derivatives as protein tyrosine kinase inhibitors and pharmaceutical use therof” (LEO PHARMA A/S, priority 2011, dated 2016).

Columns and labels:
Format in all cases: biochemical
JAK1 = molecular target: T1, JAK1 (Homo sapiens, UniProt P23458); test: JAK kinase assay (HTRF, phosphorylation of synthetic peptide), JAK1; details: catalytic domain, ATP at Km (7 μM); read-out: JAK1 kinase inhibitory activity (EC50)
T1 construct: JAK1 (aa 850-1154) and TYK2 (aa 871-1187) are expressed with an N-terminally fused GST-tag; GST (N); purchased Carna Biosciences, Inc; host or cells: baculovirus expression system
In short: (§1)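 Catalytic-domain human JAK1 (GST-tagged, aa 850-1154) or His-tagged JAK2, baculovirus-expressed, phosphorylated 1 µM biotinylated TK peptide at Km ATP (JAK1 7 µM, 10 mM MgCl2, 50 nM SEB; JAK2 4 µM, 5 mM MgCl2) in pH 7.0 Hepes, 20-30 min RT. EDTA stop; overnight streptavidin-XL665/cryptate HTRF read.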

JAK2 = molecular target: T2, JAK2 (Homo sapiens, UniProt O60674); test: JAK kinase assay (HTRF, phosphorylation of synthetic peptide), JAK2; details: catalytic domain, ATP at Km (4 μM); read-out: JAK2 kinase inhibitory activity (EC50)
T2 construct: All four purified enzymes contain only the catalytic domain; His (N); purchased Carna Biosciences, Inc; host or cells: baculovirus expression system
In short: as §1

JAK3 = molecular target: T3, JAK3 (Homo sapiens, UniProt P52333); test: JAK kinase assay (HTRF, phosphorylation of synthetic peptide), JAK3; details: catalytic domain, ATP at Km (2 μM); read-out: JAK3 kinase inhibitory activity (EC50)
T3 construct: All four purified enzymes contain only the catalytic domain; His (N); purchased Carna Biosciences, Inc; host or cells: baculovirus expression system

TYK2 = molecular target: T4, TYK2 (Homo sapiens, UniProt P29597); test: JAK kinase assay (HTRF, phosphorylation of synthetic peptide), TYK2; details: catalytic domain, ATP at Km (13 μM); read-out: TYK2 kinase inhibitory activity (EC50)
T4 construct: JAK1 (aa 850-1154) and TYK2 (aa 871-1187) are expressed with an N-terminally fused GST-tag; GST (N); purchased Carna Biosciences, Inc; host or cells: baculovirus expression system
T4 sequence (P29597 871-1187): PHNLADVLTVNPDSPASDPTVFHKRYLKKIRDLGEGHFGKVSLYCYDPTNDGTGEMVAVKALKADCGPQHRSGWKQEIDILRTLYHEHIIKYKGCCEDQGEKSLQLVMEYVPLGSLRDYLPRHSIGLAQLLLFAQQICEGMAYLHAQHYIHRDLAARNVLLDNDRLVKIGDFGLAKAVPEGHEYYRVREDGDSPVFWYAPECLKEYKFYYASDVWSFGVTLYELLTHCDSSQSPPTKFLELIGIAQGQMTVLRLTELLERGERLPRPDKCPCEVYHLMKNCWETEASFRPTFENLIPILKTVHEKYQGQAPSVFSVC
In short: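 1 µM biotinylated TK peptide at Km ATP in pH 7.0 Hepes, 20-30 min RT. EDTA stop; overnight streptavidin-XL665/cryptate HTRF read.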

T1 sequence (P23458 850-1154): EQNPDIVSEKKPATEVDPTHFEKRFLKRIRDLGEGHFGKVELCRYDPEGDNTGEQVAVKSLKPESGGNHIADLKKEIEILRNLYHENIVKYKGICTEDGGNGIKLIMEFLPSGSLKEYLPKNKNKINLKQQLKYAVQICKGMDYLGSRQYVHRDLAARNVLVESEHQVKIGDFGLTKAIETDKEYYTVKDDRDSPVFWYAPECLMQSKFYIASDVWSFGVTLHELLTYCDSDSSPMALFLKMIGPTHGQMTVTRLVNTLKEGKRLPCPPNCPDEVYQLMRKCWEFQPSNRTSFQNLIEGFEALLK
T2 sequence (O60674 849-1124 limits assumed): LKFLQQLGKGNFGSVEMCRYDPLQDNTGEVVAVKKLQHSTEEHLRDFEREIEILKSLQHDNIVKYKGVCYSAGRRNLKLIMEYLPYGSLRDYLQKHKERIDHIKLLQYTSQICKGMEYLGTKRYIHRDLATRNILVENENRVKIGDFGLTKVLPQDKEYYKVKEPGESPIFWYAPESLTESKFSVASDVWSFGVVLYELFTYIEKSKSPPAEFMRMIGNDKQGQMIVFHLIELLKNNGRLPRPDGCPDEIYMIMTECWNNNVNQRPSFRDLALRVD
T3 sequence (P52333 822-1111 limits assumed): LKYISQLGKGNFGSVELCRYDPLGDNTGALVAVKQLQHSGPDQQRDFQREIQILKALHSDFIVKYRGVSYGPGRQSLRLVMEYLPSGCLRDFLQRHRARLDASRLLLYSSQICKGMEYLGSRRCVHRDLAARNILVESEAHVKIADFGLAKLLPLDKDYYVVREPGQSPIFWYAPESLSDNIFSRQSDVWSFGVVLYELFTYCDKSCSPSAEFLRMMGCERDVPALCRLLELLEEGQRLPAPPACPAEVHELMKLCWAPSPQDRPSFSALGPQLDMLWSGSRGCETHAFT

CN(C[C@@H]1CCCN1C(=O)CCO)S(=O)(=O)N1CCN(c2ncnc3[nH]ccc23)CC12CC2 [Example 193, N-[[(2S)-1-(3-hydroxypropanoyl)pyrrolidin-2-yl]methyl]-N-methyl-5-(7H-pyrrolo[2,3-d]pyrimidin-4-yl)-5,8-diazaspiro[2.5]octane-8-sulfonamide]
EC50 (JAK1): < 0.1 µM | EC50 (JAK2): < 0.1 µM | EC50 (JAK3): < 0.1 µM | EC50 (TYK2): 0.1 to 0.5 µM

O=S(=O)(N(CCN1CCOCC1)C1CCC1)N1CCN(c2ncnc3[nH]ccc23)CC12CC2 [Example 106, N-cyclobutyl-N-(2-morpholinoethyl)-5-(7H-pyrrolo[2,3-d]pyrimidin-4-yl)-5,8-diazaspiro[2.5]octane-8-sulfonamide]
EC50 (JAK1): < 0.1 µM | EC50 (JAK2): < 0.1 µM | EC50 (JAK3): 0.1 to 0.5 µM | EC50 (TYK2): > 0.5 µM

CN(C(=O)C1CCCC1)S(=O)(=O)N1CCN(c2ncnc3[nH]ccc23)CC12CC2 [Example 132, N-methyl-N-[[5-(7H-pyrrolo[2,3-d]pyrimidin-4-yl)-5,8-diazaspiro[2.5]octan-8-yl]sulfonyl]cyclopentanecarboxamide]
EC50 (JAK1): < 0.1 µM | EC50 (JAK2): < 0.1 µM | EC50 (JAK3): 0.1 to 0.5 µM | EC50 (TYK2): 0.1 to 0.5 µM

CN(C(=O)C1CCC(F)(F)CC1)S(=O)(=O)N1CCN(c2ncnc3[nH]ccc23)CC12CC2 [Example 130, 4,4-difluoro-N-methyl-N-[[5-(7H-pyrrolo[2,3-d]pyrimidin-4-yl)-5,8-diazaspiro[2.5]octan-8-yl]sulfonyl]cyclohexanecarboxamide]
EC50 (JAK1): < 0.1 µM | EC50 (JAK2): < 0.1 µM | EC50 (JAK3): < 0.1 µM | EC50 (TYK2): 0.1 to 0.5 µM

CN(CC1CCN(C(=O)CCC#N)CC1)S(=O)(=O)N1CCN(c2ncnc3[nH]ccc23)CC12CC2 [Example 152, N-[[1-(3-cyanopropanoyl)-4-piperidyl]methyl]-N-methyl-5-(7H-pyrrolo[2,3-d]pyrimidin-4-yl)-5,8-diazaspiro[2.5]octane-8-sulfonamide]
EC50 (JAK1): < 0.1 µM | EC50 (JAK2): < 0.1 µM | EC50 (JAK3): 0.1 to 0.5 µM | EC50 (TYK2): > 0.5 µM

CN(C)S(=O)(=O)N1CCN(c2ncnc3[nH]ccc23)CC12CC2 [Example 45, 7-(7H-Pyrrolo[2,3-d]pyrimidin-4-yl)-4,7-diaza-spiro[2.5]octane-4-sulfonic acid dimethylamide]
EC50 (JAK1): < 0.1 µM | EC50 (JAK2): < 0.1 µM | EC50 (JAK3): < 0.1 µM | EC50 (TYK2): 0.1 to 0.5 µM

CN(Cc1ccccc1)S(=O)(=O)N1CCN(c2ncnc3[nH]ccc23)CC12CC2 [Example 52, 7-(7H-Pyrrolo[2,3-d]pyrimidin-4-yl)-4,7-diaza-spiro[2.5]octane-4-sulfonic acid benzyl-methyl-amide]
EC50 (JAK1): < 0.1 µM | EC50 (JAK2): < 0.1 µM | EC50 (JAK3): < 0.1 µM | EC50 (TYK2): 0.1 to 0.5 µM

O=S(=O)(N(CCc1ccccc1)CCc1ccccc1)N1CCN(c2ncnc3[nH]ccc23)CC12CC2 [Example 18, 7-(7H-Pyrrolo[2,3-d]pyrimidin-4-yl)-4,7-diaza-spiro[2.5]octane-4-sulfonic acid diphenethylamide]
EC50 (JAK1): 0.1 to 0.5 µM | EC50 (JAK2): 0.1 to 0.5 µM | EC50 (JAK3): > 0.5 µM | EC50 (TYK2): > 0.5 µM

CC(C)NS(=O)(=O)N1CCN(c2ncnc3[nH]ccc23)CC12CC2 [Example 50, 7-(7H-Pyrrolo[2,3-d]pyrimidin-4-yl)-4,7-diaza-spiro[2.5]octane-4-sulfonic acid isopropylamide]
EC50 (JAK1): 0.1 to 0.5 µM | EC50 (JAK2): < 0.1 µM | EC50 (JAK3): 0.1 to 0.5 µM | EC50 (TYK2): 0.1 to 0.5 µM

CN(C1CNC1)S(=O)(=O)N1CCN(c2ncnc3[nH]ccc23)CC12CC2 [Int 50]
EC50 (JAK1): < 0.1 µM | EC50 (JAK2): < 0.1 µM | EC50 (JAK3): 0.1 to 0.5 µM | EC50 (TYK2): > 0.5 µM

N#CCCCNS(=O)(=O)N1CCN(c2ncnc3[nH]ccc23)CC12CC2 [Example 55, 7-(7H-Pyrrolo[2,3-d]pyrimidin-4-yl)-4,7-diaza-spiro[2.5]octane-4-sulfonic acid (3-cyano-propyl)-amide]
EC50 (JAK1): < 0.1 µM | EC50 (JAK2): < 0.1 µM | EC50 (JAK3): < 0.1 µM | EC50 (TYK2): 0.1 to 0.5 µM

CN(C(=O)C1CCS(=O)(=O)C1)S(=O)(=O)N1CCN(c2ncnc3[nH]ccc23)CC12CC2 (centres unmarked) [Example 135, N-methyl-1,1-dioxo-N-[[5-(7H-pyrrolo[2,3-d]pyrimidin-4-yl)-5,8-diazaspiro[2.5]octan-8-yl]sulfonyl]thiolane-3-carboxamide]
EC50 (JAK1): < 0.1 µM | EC50 (JAK2): < 0.1 µM | EC50 (JAK3): < 0.1 µM | EC50 (TYK2): 0.1 to 0.5 µM

N#CCCCN(CCCC#N)S(=O)(=O)N1CCN(c2ncnc3[nH]ccc23)CC12CC2 [Example 56, 7-(7H-Pyrrolo[2,3-d]pyrimidin-4-yl)-4,7-diaza-spiro[2.5]octane-4-sulfonic acid bis-(3-cyano-propyl)-amide]
EC50 (JAK1): < 0.1 µM | EC50 (JAK2): < 0.1 µM | EC50 (JAK3): < 0.1 µM | EC50 (TYK2): 0.1 to 0.5 µM

CN(CC1CCCN(C(=O)CCO)C1)S(=O)(=O)N1CCN(c2ncnc3[nH]ccc23)CC12CC2 (centres unmarked) [Example 154, N-[[1-(3-hydroxypropanoyl)-3-piperidyl]methyl]-N-methyl-5-(7H-pyrrolo[2,3-d]pyrimidin-4-yl)-5,8-diazaspiro[2.5]octane-8-sulfonamide]
EC50 (JAK1): < 0.1 µM | EC50 (JAK2): < 0.1 µM | EC50 (JAK3): < 0.1 µM | EC50 (TYK2): 0.1 to 0.5 µM

CN(CCOc1ccccc1)S(=O)(=O)N1CCN(c2ncnc3[nH]ccc23)CC12CC2 [Example 31, 7-(7H-Pyrrolo[2,3-d]pyrimidin-4-yl)-4,7-diaza-spiro[2.5]octane-4-sulfonic acid methyl-(2-phenoxy-ethyl)-amide]
EC50 (JAK1): < 0.1 µM | EC50 (JAK2): < 0.1 µM | EC50 (JAK3): 0.1 to 0.5 µM | EC50 (TYK2): 0.1 to 0.5 µM

CN(CC1CCS(=O)(=O)C1)S(=O)(=O)N1CCN(c2ncnc3[nH]ccc23)CC12CC2 (centres unmarked) [Example 165, N-[(1,1-dioxothiolan-3-yl)methyl]-N-methyl-5-(7H-pyrrolo[2,3-d]pyrimidin-4-yl)-5,8-diazaspiro[2.5]octane-8-sulfonamide]
EC50 (JAK1): < 0.1 µM | EC50 (JAK2): < 0.1 µM | EC50 (JAK3): < 0.1 µM | EC50 (TYK2): 0.1 to 0.5 µM

CN(C[C@H]1CCCN1C(=O)CO)S(=O)(=O)N1CCN(c2ncnc3[nH]ccc23)CC12CC2 [Example 185, N-[[(2R)-1-(2-hydroxyacetyl)pyrrolidin-2-yl]methyl]-N-methyl-5-(7H-pyrrolo[2,3-d]pyrimidin-4-yl)-5,8-diazaspiro[2.5]octane-8-sulfonamide]
EC50 (JAK1): < 0.1 µM | EC50 (JAK2): < 0.1 µM | EC50 (JAK3): < 0.1 µM | EC50 (TYK2): < 0.1 µM

CN(C[C@H]1CCC(=O)N1)S(=O)(=O)N1CCN(c2ncnc3[nH]ccc23)CC12CC2 [Example 184, N-methyl-N-[[(2R)-5-oxopyrrolidin-2-yl]methyl]-5-(7H-pyrrolo[2,3-d]pyrimidin-4-yl)-5,8-diazaspiro[2.5]octane-8-sulfonamide]
EC50 (JAK1): < 0.1 µM | EC50 (JAK2): < 0.1 µM | EC50 (JAK3): < 0.1 µM | EC50 (TYK2): < 0.1 µM

CN(C(=O)C1CCCS(=O)(=O)C1)S(=O)(=O)N1CCN(c2ncnc3[nH]ccc23)CC12CC2 (centres unmarked) [Example 140, N-methyl-1,1-dioxo-N-[[5-(7H-pyrrolo[2,3-d]pyrimidin-4-yl)-5,8-diazaspiro[2.5]octan-8-yl]sulfonyl]thiane-3-carboxamide]
EC50 (JAK1): < 0.1 µM | EC50 (JAK2): < 0.1 µM | EC50 (JAK3): 0.1 to 0.5 µM | EC50 (TYK2): > 0.5 µM

CC(C)N(C)S(=O)(=O)N1CCN(c2ncnc3[nH]ccc23)CC12CC2 [Example 94, N-isopropyl-N-methyl-5-(7H-pyrrolo[2,3-d]pyrimidin-4-yl)-5,8-diazaspiro[2.5]octane-8-sulfonamide]
EC50 (JAK1): < 0.1 µM | EC50 (JAK2): < 0.1 µM | EC50 (JAK3): 0.1 to 0.5 µM | EC50 (TYK2): > 0.5 µM
